The conditions of data set [1]: AE profile of belzutifan; cited from earlier work.
The subject of data set [2] is CT26 tumors. Kind of data set: CT26 mouse syngeneic tumor model: tumor growth inhibition and tumor regressions. The data set is classed as in vivo. Conditions: CT26 tumors in female BALB/cAnn mice, 10 per group, anti-PD-1 5 mg/kg ip every 5 days, anti-TIGIT 10 mg/kg ip every 5 days, belzutifan 3 mg/kg orally twice daily; for Tumor growth inhibition (TGI) % at Day 16: Day 16 when control animals exited study; for Number of complete tumor regressions (CRs) at end of study / Number of partial tumor regressions (PRs) at end of study: end of study (Day 43). The source says: The present Example describes preclinical data using a TIGIT antagonist and a PD-1 antagonist in combination with belzutifan, using mouse syngeneic models.
Prior to treatment initiation, female BALB/cAnn mice aged 7 weeks weighing between 18 to 21 grams were anesthetized and injected subcutaneously into the rear flank with 0.3×10^6 log-phase sub-confluent CT26 cells. Mice were pair-matched into treatment groups consisting of 10 mice per group when the mean tumor volume of inoculated CT26 tumors reached approximately 150 mm^3.
Treatment groups consisted of: • 1) Isotype mouse IgG1 (mIgG1) antibody+Isotype mouse IgG2a (mIgG2a) antibody+0.5% methylcellulose (vehicle); • 2) anti-PD-1 mIgG1 antibody+Isotype mIgG2a antibody+vehicle; • 3) anti-TIGIT mIgG2a antibody+Isotype mIgG1 antibody+vehicle; • 4) Isotype mIgG1 antibody+Isotype mIgG2a antibody+belzutifan; • 5) anti-PD-1 mIgG1 antibody+anti-TIGIT mIgG2a antibody+vehicle; • 6) anti-PD-1 mIgG1 antibody+Isotype mIgG2a antibody+belzutifan; • 7) Isotype mIgG1 antibody+anti-TIGIT mIgG2a antibody+belzutifan; and • 8) anti-PD-1 mIgG1 antibody+anti-TIGIT mIgG2a antibody+belzutifan.
Isotype mIgG1 and anti-PD-1 antibodies were dosed intraperitoneally every 5 days at 5 mg/kg body weight. Isotype mIgG2a and anti-TIGIT antibodies were dosed intraperitoneally every 5 days at 10 mg/kg body weight. Belzutifan was dosed orally twice daily at 3 mg/kg body weight. Start of treatments was considered Day 0 and dosing based on schedules continued as described until Day 43. Caliper measurements of tumors and body weights were captured twice weekly. Statistical analyses were performed by 2-sided student t-test of final 2 groups at Day 43 when study ended.

The test system of data set [3] is RCC associated with VHL disease, CNS hemangioblastomas, pancreatic neuroendocrine tumors. Conditions: cited from earlier work.
Where [4] appears, read: patients with RCC associated with VHL disease who received belzutifan.

For `CS(=O)(=O)c1ccc(Oc2cc(F)cc(C#N)c2)c2c1[C@H](O)[C@H](F)[C@@H]2F` [belzutifan, 3-[(1S,2S,3R)-2,3-Difluoro-1-hydroxy-7-methylsulfonyl-indan-4-yl]oxy-5-fluoro-benzonitrile], in data set [1], the “adverse events associated with treatment” value was “anemia and hypoxia have been associated with belzutifan treatment”. Further, in data set [2], the “Tumor growth inhibition (TGI) % at Day 16” value was found to be 5.8%; the “Number of complete tumor regressions (CRs) at end of study” value (shortened to “Number of complete tumor regressions”) is reported as 0 CRs, 0 PRs; the “Number of partial tumor regressions (PRs) at end of study” value (from here on “Number of partial tumor regressions”) is on record as 0 CRs, 0 PRs. In data set [3] (patients with CNS hemangioblastomas), the “patients with a response after treatment” value is on record as 30%. For the same molecule, in data set [3] (setting [4]), the “patients with a confirmed objective response” value is on record as 49% and the “reduction in renal tumor size” value was “most patients had a reduction in renal tumor size”. Also, in data set [3] (patients with pancreatic neuroendocrine tumors), the “patients who responded after treatment” value is recorded as 91%.

B1: Anti-TIGIT (antibody)
heavy: QVQLMESGPGLVQPSQTLSLTCTVSGFPLTSYTVHWVRQPPGKGLEWIGAIWSSGSTDYNSALKSRLNINRDSSKSQVFLKMNSLQTEDTAIYFCTKSGWAFFDYWGQGVMVTVSSAKTTAPSVYPLAPVCGDTTGSSVTLGCLVKGYFPEPVTLTWNSGSLSSGVHTFPAVLQSDLYTLSSSVTVTSSTWPSQSITCNVAHPASSTKVDKKIEPRGPTIKPCPPCKCPAPNLLGGPSVFIFPPKIKDVLMISLSPIVTCVVVDVSEDDPDVQISWFVNNVEVHTAQTQTHREDYNSTLRVVSALPIQHQDWMSGKEFKCKVNNKDLPAPIERTISKPKGSVRAPQVYVLPPPEEEMTKKQVTLTCMVTDFMPEDIYVEWTNNGKTELNYKNTEPVLDSDGSYFMYSKLRVEKKNWVERNSYSCSVVHEGLHNHHTTKSFSRTPGK
light: DIQMTQSPSLLSASVGDRVTLNCIASQNIYKSLAWYQLKLGEAPKLLIYNANSLQAGIPSRFSGSGSGTDFALTISGLQPEDVATYFCQQYSGGYTFGAGTKLELKRADAAPTVSIFPPSSEQLTSGGASVVCFLNNFYPKDINVKWKIDGSERQNGVLNSWTDQDSKDSTYSMSSTLTLTKDEYERHNSYTCEATHKTSTSPIVKSFNRNEC
For the molecule B1, in data set [2], the “Tumor growth inhibition (TGI) % at Day 16” value is given as 47.4%; the “Number of complete tumor regressions” value is recorded as 0 CRs, 0 PRs; the “Number of partial tumor regressions” value is on record as 0 CRs, 0 PRs.

B2: Anti-PD-1 (antibody)
heavy: EVQLVESGGGLVQPGGSLKLSCAASGFTFSNSGLAWVRQAPEKGLEWVATITYNGTSTYYRDSVKGRFTISRDNAKNTLYLQMSSLRSEDTATYYCARWVPGSGNFDYWGQGTLVTVSSAKTTPPSVYPLAPGSAAQTNSMVTLGCLVKGYFPEPVTVTWNSGSLSSGVHTFPAVLQSDLYTLSSSVTVPSSTWPSETVTCNVAHPASSTKVDKKIVPRDCGCKPCICTVPEVSSVFIFPPKPKDVLTITLTPKVTCVVVAISKDDPEVQFSWFVDDVEVHTAQTQPREEQFNSTFRSVSELPIMHQDWLNGKEFKCRVNSAAFPAPIEKTISKTKGRPKAPQVYTIPPPKEQMAKDKVSLTCMITDFFPEDITVEWQWNGQPAENYKNTQPIMDTDGSYFVYSKLNVQKSNWEAGNTFTCSVLHEGLHNHHTEKSLSHSPGK
light: DIVLTQSPASLAVSLGQRATISCRASQSVTISRYTLMHWYQQKPGQPPKLLIYRASNLASGIPARFSGSGSGTDFTLNIHPVEEDDAATYYCQQSRESPWTFGGGTKLEIKRADAAPTVSIFPPSSEQLTSGGASVVCFLNNFYPKDINVKWKIDGSERQNGVLNSWTDQDSKDSTYSMSSTLTLTKDEYERHNSYTCEATHKTSTSPIVKSFNRNEC
In the case of B2, in data set [2], the “Tumor growth inhibition (TGI) % at Day 16” value amounted to 4.8%, the “Number of complete tumor regressions” value stood at 0 and the “Number of partial tumor regressions” value is on record as 1.

(Values after patent US20250333509A1, “METHODS FOR TREATING CANCER, OR VON-HIPPEL LINDAU DISEASE USING A COMBINATION OF A TIGIT ANTAGONIST, A PD-1 ANTAGONIST, AND A HIF-2-ALPHA INHIBITOR” (MERCK SHARP & DOHME LLC, priority 2022, published 2025).)
